Measured values reported in PMC12042115 (mLife, 2025).
“And” between values parts separate entries of the source, which are not always exact repeats. Equal entries are not always repeated. Where two headings read alike, the source gives them in different places.

Tested on: wild‐type BCG cells
Type: cell-based, M. bovis BCG
Settings: for Mean Ratio (GDI5755_2d vs DMSO_2d): 2d; for Ratio: single ratios, GDI5755_3d vs DMSO_3d

O=C(Oc1ccc(Cl)cc1)c1ccc(N2CCOCC2)c([N+](=O)[O-])c1 [GDI‐5755]
Mean Ratio (GDI5755_2d vs DMSO_2d) (protein BCG_3079c A0A0H3M8N0 NADPH-dependent FMN reductase-like domain-containing protein，FMN reductase, up-regulated): 1.67
Mean Ratio (GDI5755_2d vs DMSO_2d) (protein BCG_3185c A0A0H3M8B9 Possible dioxygenase, up-regulated): 2.02
Mean Ratio (GDI5755_2d vs DMSO_2d) (protein BCG_3281c A0A0H3MAS0 Probable transmembrane alkane 1-monooxygenase alkB, up-regulated): 1.48
Mean Ratio (GDI5755_2d vs DMSO_2d) (protein BCG_3298 A0A0H3MAT3 DUF1490 family protein, up-regulated): 1.92
Mean Ratio (GDI5755_2d vs DMSO_2d) (protein BCG_3319c A0A0H3MAV3 L-lysine 6-transaminase, up-regulated): 1.48
Mean Ratio (GDI5755_2d vs DMSO_2d) (protein BCG_3476 A0A0H3MB64 Probable dioxygenase, up-regulated): 1.55
Mean Ratio (GDI5755_2d vs DMSO_2d) (protein BCG_3588 A0A0H3M9C1 Probable conserved membrane protein, up-regulated): 1.81
Mean Ratio (GDI5755_2d vs DMSO_2d) (protein BCG_3590 A0A0H3MBE7 Rieske-type oxygenase, up-regulated): 1.45
Mean Ratio (GDI5755_2d vs DMSO_2d) (protein BCG_3591 A0A0H3MID2 Uncharacterized protein,BCG_3591, up-regulated): 1.62
Mean Ratio (GDI5755_2d vs DMSO_2d) (protein BCG_3826c A1KQ98 Putative S-adenosyl-L-methionine-dependent methyltransferase BCG_3826c, up-regulated): 1.54
Mean Ratio (GDI5755_2d vs DMSO_2d) (protein BCG_3917c A0A0H3MJE2 Monooxygenase ethA, up-regulated): 1.44
Mean_Ratio_GDI5755_2d-VS-WT_2d_control (s002 sheet P value, unrounded): 3.462 and 2.763 and 2.713 and 2.648 and 2.17
Mean_Ratio_GDI5755_2d-VS-WT_2d_control (s002 sheet annot_file, c8 (rounded)): 1.08 and 0.90 and 1.06 and 0.93 and 0.81
Mean_Ratio_GDI5755_2d-VS-WT_2d_control (s002 sheet annot_file, c9 (unrounded)): 1.083 and 0.8951 and 1.059 and 0.9258 and 0.8124
Mean_Ratio_GDI5755_3d-VS-WT_3d_control (s003 sheet P value): 3.94 and 2.77 and 2.53 and 2.26 and 2.25
Mean_Ratio_GDI5755_3d-VS-WT_3d_control (s003 sheet annot_file): 1.18 and 1.02 and 1.00
Ratio (protein A0A0G2Q9F3, BCG_0030c (Rv3924c), Large ribosomal subunit protein bL34): 0.8126 and 0.7464 and 0.864 and 0.7929
Ratio (protein A0A0H3M7L0, BCG_2659c (Rv2632c), DUF1876 domain-containing protein): 0.6783 and 0.84 and 0.8345 and 0.8579
Ratio (protein A0A0H3M8R4, BCG_3395 (Rv1267c), Possible transcriptional regulatory protein embR2): 0.7934 and 0.8013 and 0.8041 and 0.8107
Ratio (protein A0A0H3M499, BCG_1243 (Rv1180/Rv1181), Probable polyketide beta-ketoacyl synthase pks3): 0.7824 and 0.8155 and 0.7985 and 0.8135
Ratio (protein A0A0H3M677, BCG_1564 (Rv1500), Probable glycosyltransferase): 0.8075 and 0.8276 and 0.7828 and 0.8014
Ratio (protein A0A0H3MA33, BCG_1381c (Rv1320c), Possible adenylate cyclase): 0.785 and 0.7965 and 0.7852 and 0.8412
Ratio (protein A0A0H3MBI4, BCG_2001A (Rv1962A), Antitoxin VapB35): 0.8087 and 0.8452 and 0.7652 and 0.7971
Ratio (protein A0A0H3MBL1, BCG_3682c (Rv3624c), Hypoxanthine phosphoribosyltransferase): 0.7684 and 0.8491 and 0.778 and 0.8193
Ratio (protein A0A0H3MDB0, BCG_2775c (Rv2759c), Ribonuclease VapC): 0.8535 and 0.7284 and 0.8794 and 0.7453
Ratio (protein A1KPC8, BCG_3507c (Rv3441c), Phosphoglucosamine mutase): 0.7677 and 0.7655 and 0.8493 and 0.8355
proteome downregulated (third day, 2×MIC): 49.6%
Mean_Ratio (GDI5755_3d vs DMSO_3d), protein BCG_0130 (up-regulated, A0A0H3M0N8, Mtb Rv0097, Possible oxidoreductase): 1.5
Mean_Ratio (GDI5755_3d vs DMSO_3d), protein BCG_0176 (up-regulated, A0A0H3M1F5, Mtb MRA_0147, DUF427 domain-containing protein): 1.5
Mean_Ratio (GDI5755_3d vs DMSO_3d), protein BCG_0623c (up-regulated, A0A0H3M1W6, Mtb Rv0578c, PE-PGRS family protein): 1.8
Mean_Ratio (GDI5755_3d vs DMSO_3d), protein BCG_0353 (up-regulated, A0A0H3M1Y1, Mtb Rv0313, Transmembrane protein): 1.6
Mean_Ratio (GDI5755_3d vs DMSO_3d), protein BCG_0227 (up-regulated, A0A0H3M2R5, Mtb Rv0190, Copper-sensing transcriptional repressor RicR): 1.4
Mean_Ratio (GDI5755_3d vs DMSO_3d), protein BCG_0726c (up-regulated, A0A0H3M2T8, Mtb Rv0677c, Possible conserved membrane protein mmpS5): 1.4
Mean_Ratio (GDI5755_3d vs DMSO_3d), protein BCG_1249 (up-regulated, A0A0H3M3D0, Mtb Rv1187, L-glutamate gamma-semialdehyde dehydrogenase): 1.6
Mean_Ratio (GDI5755_3d vs DMSO_3d), protein BCG_1334 (up-regulated, A0A0H3M3I9, Mtb Rv1275, Lipoprotein lprC): 1.3
Mean_Ratio (GDI5755_3d vs DMSO_3d), protein A0A0H3M3L0Rv1303 (up-regulated, A0A0H3M3L0, Conserved hypothetical transmembrane protein): 1.4
Mean_Ratio (GDI5755_3d vs DMSO_3d), protein BCG_0507 (up-regulated, A0A0H3M3L9, Mtb Rv0467, isocitrate lyase): 1.5
Mean_Ratio (GDI5755_3d vs DMSO_3d), protein BCG_1404c (up-regulated, A0A0H3M3N1, Mtb Rv1342c, Conserved membrane protein): 1.5
Mean_Ratio (GDI5755_3d vs DMSO_3d), protein BCG_1053 (up-regulated, A0A0H3M3P8, Mtb MRA_1004, Uncharacterized protein): 1.5
Mean_Ratio (GDI5755_3d vs DMSO_3d), protein BCG_1472c (up-regulated, A0A0H3M3S8, Mtb Rv1411c, Lipoarabinomannan carrier protein LprG): 1.4
Mean_Ratio (GDI5755_3d vs DMSO_3d), protein BCG_0578c (up-regulated, A0A0H3M3U8, Mtb Rv0534c, 1,4-dihydroxy-2-naphthoate octaprenyltransferase, menA): 1.9
Mean_Ratio (GDI5755_3d vs DMSO_3d), protein BCG_1661c (up-regulated, A0A0H3M4E4, Mtb Rv1623c, integral membrane cytochrome D ubiquinol oxidase (Subunit I) cydA): 1.6
Mean_Ratio (GDI5755_3d vs DMSO_3d), protein BCG_1022 (up-regulated, A0A0H3M4W6, Mtb Rv0968, DUF1490 family protein): 1.5
Mean_Ratio (GDI5755_3d vs DMSO_3d), protein BCG_1787 (up-regulated, A0A0H3M5K5, Mtb Rv1748, DUF4129 domain-containing protein): 1.4
Mean_Ratio (GDI5755_3d vs DMSO_3d), protein BCG_1584c (up-regulated, A0A0H3M6A1, Mtb Rv1532c, Thioesterase domain-containing protein): 1.3
Mean_Ratio (GDI5755_3d vs DMSO_3d), protein BCG_1795c (up-regulated, A0A0H3M6T8, Mtb MRA_1768B, Uncharacterized protein): 1.4
Mean_Ratio (GDI5755_3d vs DMSO_3d), protein BCG_1998c (up-regulated, A0A0H3M7D9, Mtb Rv1959c, Toxin ParE1): 1.4
Mean_Ratio (GDI5755_3d vs DMSO_3d), protein BCG_2583 (up-regulated, A0A0H3M7F6, Mtb Rv2560, proline and glycine rich transmembrane protein): 1.7
Mean_Ratio (GDI5755_3d vs DMSO_3d), protein BCG_0282c (up-regulated, A0A0H3M7K8, Mtb Rv0244c, acyl-CoA dehydrogenase fadE5): 1.6
Mean_Ratio (GDI5755_3d vs DMSO_3d), protein BCG_0287c (up-regulated, A0A0H3M7L3, Mtb Rv0249c, Succinate dehydrogenase [membrane anchor subunit]): 1.4
Mean_Ratio (GDI5755_3d vs DMSO_3d), protein BCG_2072c (up-regulated, A0A0H3M7M3, Mtb Rv2053c, transmembrane protein): 1.6
Mean_Ratio (GDI5755_3d vs DMSO_3d), protein BCG_2723 (up-regulated, A0A0H3M7S6, Mtb Rv2710, RNA polymerase sigma factor, sigB): 1.3
Mean_Ratio (GDI5755_3d vs DMSO_3d), protein BCG_0422c (up-regulated, A0A0H3M7W9, Mtb Rv0384c, Chaperone protein ClpB): 1.5
Mean_Ratio (GDI5755_3d vs DMSO_3d), protein BCG_3185c (up-regulated, A0A0H3M8B9, Mtb Rv3161c, Dioxygenase): 2.2
Mean_Ratio (GDI5755_3d vs DMSO_3d), protein BCG_3195c (up-regulated, A0A0H3M8D0, Mtb Rv3171c, Possible non-heme haloperoxidase hpx): 1.4
Mean_Ratio (GDI5755_3d vs DMSO_3d), protein BCG_0728c (up-regulated, A0A0H3M8M0, Mtb Rv0679c, Conserved hypothetical threonine rich protein): 1.4
Mean_Ratio (GDI5755_3d vs DMSO_3d), protein BCG_3079c (up-regulated, A0A0H3M8N0, Mtb Rv3054c, NADPH-dependent FMN reductase-like domain-containing protein): 2.0
Mean_Ratio (GDI5755_3d vs DMSO_3d), protein BCG_3084 (up-regulated, A0A0H3M8N5, Mtb Rv3059, Probable cytochrome P450 136 cyp136): 1.3
Mean_Ratio (GDI5755_3d vs DMSO_3d), protein BCG_3153c (up-regulated, A0A0H3M8U1, Mtb Rv3130c, Diacylglycerol O-acyltransferase): 1.4
Mean_Ratio (GDI5755_3d vs DMSO_3d), protein BCG_2517c (up-regulated, A0A0H3M8U9, Mtb Rv2497c, Probable pyruvate dehydrogenase E1 component (Alpha subunit) pdhA): 1.4
Mean_Ratio (GDI5755_3d vs DMSO_3d), protein BCG_3184c (up-regulated, A0A0H3M8V5, Mtb Rv3160c, Possible transcriptional regulatory protein (Probably tetR-family)): 1.4
Mean_Ratio (GDI5755_3d vs DMSO_3d), protein BCG_3588 (up-regulated, A0A0H3M9C1, Mtb Rv3524, Serine/threonine-protein kinase PknD(NU-6027 target)): 1.8
Mean_Ratio (GDI5755_3d vs DMSO_3d), protein BCG_2721c (up-regulated, A0A0H3M9C3, Mtb Rv2708c, DUF3039 domain-containing protein): 1.4
Mean_Ratio (GDI5755_3d vs DMSO_3d), protein BCG_1115 (up-regulated, A0A0H3M9F1, Mtb Rv1057, YVTN family beta-propeller repeat protein): 1.5
Mean_Ratio (GDI5755_3d vs DMSO_3d), protein BCG_1130 (up-regulated, A0A0H3M9G5, conserved transmembrane protein): 1.5
Mean_Ratio (GDI5755_3d vs DMSO_3d), protein BCG_2810c (up-regulated, A0A0H3M9L8, Mtb Rv2792c, Possible resolvase): 1.5
